The test deals with IRAK4 (Homo sapiens (Human), UniProt Q9NWZ3). Kind of test: IRAK4 Inhibition Assay. The class given is biochemical. Conditions: ATP 500 μM; IRAK4 0.6 nM. As for the experimental part:
The assays were performed in U-bottom 384-well plates. The final assay volume was 30 μL prepared from 15 μL additions of enzyme and substrates (fluoresceinated peptide and ATP) and test compounds in assay buffer (20 mM HEPES pH 7.2, 10 mM MgCl2, 0.015% Brij 35 and 4 mM DTT). The reaction was initiated by the combination of IRAK4 with substrates and test compounds. The reaction mixture was incubated at room temperature for 60 min. and terminated by adding 45 μL of 35 mM EDTA to each sample. The reaction mixture was analyzed on the Caliper LABCHIP® 3000 (Caliper, Hopkinton, Mass.) by electrophoretic separation of the fluorescent substrate and phosphorylated product. Inhibition data were calculated by comparison to no enzyme control reactions for 100% inhibition and vehicle-only reactions for 0% inhibition. The final concentrations of reagents in the assays are ATP, 500 μM; FL-IPTSPITTTYFFFKKK peptide 1.5 μM; IRAK4, 0.6 nM; and DMSO, 1.6%.

The structures appear in SMILES notation.

Sequence of IRAK4 (Q9NWZ3 whole entry, species assumed): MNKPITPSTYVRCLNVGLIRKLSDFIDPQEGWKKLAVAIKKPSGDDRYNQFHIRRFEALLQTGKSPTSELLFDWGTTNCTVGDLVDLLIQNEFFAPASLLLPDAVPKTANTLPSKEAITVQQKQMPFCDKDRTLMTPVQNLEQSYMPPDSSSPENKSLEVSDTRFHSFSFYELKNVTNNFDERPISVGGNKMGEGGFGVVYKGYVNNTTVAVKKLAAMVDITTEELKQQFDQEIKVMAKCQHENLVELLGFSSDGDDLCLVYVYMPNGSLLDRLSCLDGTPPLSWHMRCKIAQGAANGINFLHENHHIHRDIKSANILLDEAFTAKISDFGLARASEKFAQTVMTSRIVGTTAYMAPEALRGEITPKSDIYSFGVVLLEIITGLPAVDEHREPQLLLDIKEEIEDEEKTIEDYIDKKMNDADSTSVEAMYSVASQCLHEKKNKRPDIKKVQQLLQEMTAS

Turning to `CC(C)Nc1cc(-n2ncc3cc(C#N)cnc32)ncc1-c1cn(-c2ccc(F)cc2)nn1` [Example 109, 1-(5-(1-(4-fluorophenyl)-1H-1,2,3-triazol-4-yl)-4-(isopropylamino)pyridin-2-yl)-1H-pyrazolo[3,4-b]pyridine-5-carbonitrile], the IC50 was 217 nM.
For `CCCc1cn(-c2cnc(-n3ncc4cncnc43)cc2Nc2cnn(CC(F)F)c2)nn1` [Example 271, N-(1-(2,2-difluoroethyl)-1H-pyrazol-4-yl)-5-(4-propyl-1H-1,2,3-triazol-1-yl)-2-(1H-pyrazolo[3,4-d]pyrimidin-1-yl)pyridin-4-amine], the IC50 amounted to 108 nM.
Take `CC(=O)N[C@H]1CC[C@H](c2cc(-c3cnc(-n4ncc5cc(C#N)cnc54)cc3NC(C)C)on2)CC1` [Example 410, N-((1s,4s)-4-(5-(6-(5-cyano-1H-pyrazolo[3,4-b]pyridin-1-yl)-4-(isopropylamino)pyridin-3-yl)isoxazol-3-yl)cyclohexyl)acetamide]: the IC50 was determined as 2 nM.
Consider `CC(C)Nc1cc(-n2ncc3cc(C#N)cnc32)ncc1-c1cn(CC(=O)N2CCOCC2)nn1` [Example 101, 1-(4-(isopropylamino)-5-(1-(2-morpholino-2-oxoethyl)-1H-1,2,3-triazol-4-yl)pyridin-2-yl)-1H-pyrazolo[3,4-b]pyridine-5-carbonitrile], for which the IC50 is 5 nM.
Next, `CC(C)Nc1cc(-n2ncc3cc(C#N)cnc32)ncc1-c1cn(CCCc2ccccc2)cn1` [Example 241, 1-(4-(isopropylamino)-5-(1-(3-phenylpropyl)-1H-imidazol-4-yl)pyridin-2-yl)-1H-pyrazolo [3,4-b]pyridine-5-carbonitrile]: 35 nM; `CC(C)Nc1cc(-n2ncc3cc(C#N)cnc32)ncc1-n1ccc(C(F)(F)F)n1` [Example 247, 1-(4-(isopropylamino)-5-(3-(trifluoromethyl)-1H-pyrazol-1-yl)pyridin-2-yl)-1H-pyrazolo[3,4-b]pyridine-5-carbonitrile]: 202 nM.
In the case of `CC(C)(O)CCc1cn(-c2cnc(-n3ncc4cc(C#N)cnc43)cc2N[C@H]2CC[C@@H](F)CC2)nn1` [Example 374, 1-(4-(((1r,4r)-4-fluorocyclohexyl)amino)-5-(4-(3-hydroxy-3-methylbutyl)-1H-1,2,3-triazol-1-yl)pyridin-2-yl)-1H-pyrazolo[3,4-b]pyridine-5-carbonitrile], the concentration for half-maximal inhibition (IC50) turned out to be 2 nM.
On to `CCN[C@H]1CC[C@H](c2cn(-c3cnc(-n4ncc5cc(C#N)cnc54)cc3NC(C)C)nn2)CC1` [Example 356, 1-(5-(4-((1s,4s)-4-(ethylamino)cyclohexyl)-1H-1,2,3-triazol-1-yl)-4-(isopropylamino)pyridin-2-yl)-1H-pyrazolo[3,4-b]pyridine-5-carbonitrile], for which the IC50 was 3 nM.
As for `CCCn1cc(-c2cnc(-n3cnc4cc(C#N)cnc43)cc2NC2CCOCC2)nn1` [Example 50, 3-(5-(1-propyl-1H-1,2,3-triazol-4-yl)-4-((tetrahydro-2H-pyran-4-yl)amino)pyridin-2-yl)-3H-imidazo[4,5-b]pyridine-6-carbonitrile], the IC50 came out at 5 nM.
Next, `CC(F)Cc1cn(-c2cnc(-n3cnc4cc(C#N)cnc43)cc2NC(C)C)nn1` (single isomer, unassigned) [Example 290, 3-(5-(4-(2-fluoropropyl)-1H-1,2,3-triazol-1-yl)-4-(isopropylamino)pyridin-2-yl)-3H-imidazo[4,5-b]pyridine-6-carbonitrile]: 25 nM; `CCn1cc(-c2cnc(-n3ncc4cc(C#N)cnc43)cc2NC(C)C)cn1` [Example 253, 1-(5-(1-ethyl-1H-pyrazol-4-yl)-4-(isopropylamino)pyridin-2-yl)-1H-pyrazolo[3,4-b]pyridine-5-carbonitrile]: 65 nM.
As for `CC(C)Nc1cc(-n2ncc3cc(C#N)cnc32)ncc1-n1cc(CN)nn1` [Example 310, 1-(5-(4-(aminomethyl)-1H-1,2,3-triazol-1-yl)-4-(isopropylamino)pyridin-2-yl)-1H-pyrazolo[3,4-b]pyridine-5-carbonitrile], the figure is 108 nM; as for `CC(C)Nc1cc(-n2ncc3cc(C#N)cnc32)ncc1-c1cn(-c2ccc(F)c(C#N)c2)nn1` [Example 104, 1-(5-(1-(3-cyano-4-fluorophenyl)-1H-1,2,3-triazol-4-yl)-4-(isopropylamino)pyridin-2-yl)-1H-pyrazolo[3,4-b]pyridine-5-carbonitrile], 399 nM; as for `CC(C)Nc1cc(-n2ncc3cc(C#N)cnc32)ncc1-n1cc(CCCN)cn1` [Example 251, 1-(5-(4-(3-aminopropyl)-1H-pyrazol-1-yl)-4-(isopropylamino)pyridin-2-yl)-1H-pyrazolo[3,4-b]pyridine-5-carbonitrile], 39 nM.
As for `CC(C)Nc1cc(-n2ncc3cc(C#N)cnc32)ncc1-n1cc(-c2cncn2C)nn1` [Example 317, 1-(4-(isopropylamino)-5-(4-(1-methyl-1H-imidazol-5-yl)-1H-1,2,3-triazol-1-yl)pyridin-2-yl)-1H-pyrazolo[3,4-b]pyridine-5-carbonitrile], the figure is 60 nM.
Turning to `CNCc1cn(-c2cnc(-n3ncc4cc(C#N)cnc43)cc2NC(C)C)nn1` [Example 314, 1-(4-(isopropylamino)-5-(4-((methylamino)methyl)-1H-1,2,3-triazol-1-yl)pyridin-2-yl)-1H-pyrazolo[3,4-b]pyridine-5-carbonitrile], the IC50 was found to be 93 nM.
With `CC(F)Cc1cn(-c2cnc(-n3cnc4cnc(N)nc43)cc2NC(C)C)nn1` (single isomer, unassigned) [Example 293, 9-(5-(4-(2-fluoropropyl)-1H-1,2,3-triazol-1-yl)-4-(isopropylamino)pyridin-2-yl)-9H-purin-2-amine], the IC50 was found to be 28 nM.
For the compound `CCCc1cn(-c2cnc(-n3ncc4cc(C#N)cnc43)cc2NC2COC2)nn1` [Example 276, 1-(4-(oxetan-3-ylamino)-5-(4-propyl-1H-1,2,3-triazol-1-yl)pyridin-2-yl)-1H-pyrazolo[3,4-b]pyridine-5-carbonitrile], the IC50 stood at 17 nM.
As for `CC(C)Nc1cc(-n2ncc3cc(C#N)cnc32)ncc1-n1cc(-c2ccncc2)nn1` [Example 326, 1-(4-(isopropylamino)-5-(4-(pyridin-4-yl)-1H-1,2,3-triazol-1-yl)pyridin-2-yl)-1H-pyrazolo [3,4-b]pyridine-5-carbonitrile], the IC50 amounted to 28 nM.
As for `CC(C)Nc1cc(-n2ncc3cc(C#N)cnc32)ncc1-c1cn(CC(=O)N2CCN(S(C)(=O)=O)CC2)nn1` [Example 193, 1-(4-(isopropylamino)-5-(1-(2-(4-(methylsulfonyl)piperazin-1-yl)-2-oxoethyl)-1H-1,2,3-triazol-4-yl)pyridin-2-yl)-1H-pyrazolo[3,4-b]pyridine-5-carbonitrile], the figure is 4 nM; as for `CC(C)Nc1cc(-n2ncc3cc(C#N)cnc32)ncc1-c1cnn(C2CC2)c1` [Example 259, 1-(5-(1-cyclopropyl-1H-pyrazol-4-yl)-4-(isopropylamino)pyridin-2-yl)-1H-pyrazolo[3,4-b]pyridine-5-carbonitrile], 153 nM.
As to `CC(C)Nc1cc(-n2ncc3cc(C#N)cnc32)ncc1-n1cc(CN(C)C)nn1` [Example 308, 1-(5-(4-((dimethylamino)methyl)-1H-1,2,3-triazol-1-yl)-4-(isopropylamino)pyridin-2-yl)-1H-pyrazolo[3,4-b]pyridine-5-carbonitrile], the IC50 came to 80 nM.
On to `CCC(C)(O)Cn1cc(-c2cnc(-n3cnc4cc(C#N)cnc43)cc2NC(C)C)nn1` (single isomer, unassigned) [Example 95, 3-(5-(1-(2-hydroxy-2-methylbutyl)-1H-1,2,3-triazol-4-yl)-4-(isopropylamino)pyridin-2-yl)-3H-imidazo[4,5-b]pyridine-6-carbonitrile], for which the IC50 turned out to be 16 nM.
Next, `CC(C)Nc1cc(-n2ncc3cc(C#N)cnc32)ncc1-n1cc(CCO)nn1` [Example 302, 1-(5-(4-(2-hydroxyethyl)-1H-1,2,3-triazol-1-yl)-4-(isopropylamino)pyridin-2-yl)-1H-pyrazolo[3,4-b]pyridine-5-carbonitrile]: 29 nM.
Next, `CC(C)Nc1cc(-n2ncc3cc(C#N)cnc32)ncc1-n1cc(CCO)cn1` [Example 242, 1-(5-(4-(2-hydroxyethyl)-1H-pyrazol-1-yl)-4-(isopropylamino)pyridin-2-yl)-1H-pyrazolo[3,4-b]pyridine-5-carbonitrile]: 47 nM.
Next, `CC(C)Nc1cc(-n2ncc3cc(C#N)cnc32)ncc1-n1cc(-c2ccccc2)nn1` [Example 297, 1-(4-(isopropylamino)-5-(4-phenyl-1H-1,2,3-triazol-1-yl)pyridin-2-yl)-1H-pyrazolo[3,4-b]pyridine-5-carbonitrile]: 28 nM.
`CC(C)Nc1cc(-n2ncc3cc(C#N)cnc32)ncc1-c1cn(Cc2ccc(F)cc2)nn1` [Example 112, 1-(5-(1-(4-fluorobenzyl)-1H-1,2,3-triazol-4-yl)-4-(isopropylamino)pyridin-2-yl)-1H-pyrazolo[3,4-b]pyridine-5-carbonitrile]: the IC50 turned out to be 76 nM.
On to `CC(C)Nc1cc(-n2ncc3cc(C#N)cnc32)ncc1-c1cn(C2CNC2)nn1` [Example 138, 1-(5-(1-(azetidin-3-yl)-1H-1,2,3-triazol-4-yl)-4-(isopropylamino)pyridin-2-yl)-1H-pyrazolo[3,4-b]pyridine-5-carbonitrile], for which the IC50 amounted to 25 nM.

Values taken from patent US10294229B2, “Heteroaryl substituted aminopyridine compounds” (BRISTOL-MYERS SQUIBB COMPANY, priority 2015, dated 2019).
